Assay results published in patent US7862804B2, “Admistration of C-glycoside compounds for depigmenting/whitening the skin” (Loreal, priority 2005, dated 2011).

System: actinic lentigines
Assay: Double blind clinical study versus placebo; dermatologist's clinical evaluation of actinic lentigines
Type: in vivo, human
Protocol: A clinical evaluation of actinic lentigines was carried out by a dermatologist at the beginning and at the end of the study according to a scale with 7 levels, including 4 main levels: • 0—absent; • 1—few blemishes; • 2—many blemishes; • 3—a great many blemishes; and 3 intermediate levels (0.5; 1.5; 2.5).
The women applied C-β-D-xylopyranoside-2-hydroxypropane at a concentration of 10% by weight with respect to the total weight of the composition in a proportion of 2 mg/cm^2 or the placebo twice daily for 3 months (98 days) to the pre-marked regions.

CC(O)C[C@@H]1OC[C@@H](O)[C@H](O)[C@H]1O (stereo partly drawn) [C-β-D-xylopyranoside-2-hydroxypropane]
mean score of actinic lentigines on the treated side, end of study (scale with 7 levels, 0-3, 10% by weight, 2 mg/cm^2 topical twice daily for 3 months (98 days), p=0.08): 0.93+/−0.68 | mean score of actinic lentigines on the treated side, before treatment (scale with 7 levels, 0 absent to 3 a great many blemishes, 15 women, phototype III, baseline of treated side): 1.07+/−0.62 | subjects exhibiting a lower score on the treated side, end of study (treated side versus placebo side, after 3 months (98 days) of 10% topical twice daily): 54% | subjects exhibiting a lower score on the treated side, at the beginning of the study (treated side versus placebo side, baseline): 13%
